Reference: patent US10570168B2, “2′ and/or 5′ amino-acid ester phosphoramidate 3′-deoxy adenosine derivatives as anti- cancer compounds” (NuCana plc, priority 2014, dated 2020)

Columns and labels:
Format in all cases: cell-based
HL-60 [1] = test: CellTiterGlo viability assay, initial screening; details: Homo sapiens, HL-60, 72 h, read-out: IC50 (relative IC50)
Description: (§1) In vitro viability assays were performed to assess the effects of compounds on cell viability in 7 selected cell lines over 72 hr using the CellTiterGlo (CTG, Promega-G7573) assay. The tests were performed in duplicates with treatment of compounds at 9 points, 3.16 folds titration in 96 well plates over ˜72 hr. The compound starting concentrations were […]. Cell viability assay using CellTiterGlo in 96-well plate were performed. The compound treatment was 72 hrs, under standard growth conditions, and in duplicate. Compounds were dissolved to 40 mM with thawed […]. Compounds were serially diluted at 3.16 fold in thawed DMSO, and warmed to 37° C. before being dissolved in media (2 μl+200 μl). After compounds were dissolved in media (media was also warmed to 37° C.). Media containing compounds were warmed to 37° C. in incubator and then compounds in media were added to cell plates (50 μl+50 μl), in duplicates. The compounds final concentrations were from […] to 19.9 nM. All compound solubilities were checked and recorded again, then the plates were transferred to CO2 tissue culture incubator immediately and incubated for 3 days. DMSO final concentration is 0.5%.

HepG2 [2] = test: CellTiterGlo viability assay, initial screening; details: Homo sapiens, HepG2, 72 h, read-out: IC50 (relative IC50)
Description: as §1

K562 [3] = test: CellTiterGlo viability assay, initial screening; details: Homo sapiens, K562, 72 h, read-out: IC50 (relative IC50)
Description: as §1

KG-1 [4] = test: CellTiterGlo viability assay, initial screening; details: Homo sapiens, KG-1, 72 h, read-out: IC50 (relative IC50)
Description: as §1

MCF-7 = test: CellTiterGlo viability assay, initial screening; details: Homo sapiens, MCF7, 72 h, read-out: IC50 (relative IC50)
Description: as §1

MOLT-4 [5] = test: CellTiterGlo viability assay, initial screening; details: Homo sapiens, MOLT-4, 72 h, read-out: IC50 (relative IC50)
Description: as §1

CCRFCEM = test: Solid tumour and haematological malignancy assay (CellTiterGlo); details: Homo sapiens, CCRF-CEM, 72 h; for IC50: read-out: IC50 (absolute IC50); for Emax: read-out: MI %
Summary of the method: (§2)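 CTG luminescence read-out of viability after 3 days of compound exposure; duplicates, standard growth conditions, 0.5% DMSO final.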

HEL92.1.7 = test: as above; details: Homo sapiens, HEL 92.1.7, 72 h; for IC50: read-out: IC50 (absolute IC50); for Emax: read-out: MI %
Summary of the method: as §2

HL-60 [6] = test: as above; details: Homo sapiens, HL-60, 72 h; for IC50: read-out: IC50 (absolute IC50); for Emax: read-out: MI %
Summary of the method: as §2

HT29 = test: as above; details: Homo sapiens, HT-29, 72 h; for IC50: read-out: IC50 (absolute IC50); for Emax: read-out: MI %
Summary of the method: as §2

HepG2 [7] = test: as above; details: Homo sapiens, HepG2, 72 h; for IC50: read-out: IC50 (absolute IC50); for Emax: read-out: MI %
Summary of the method: as §2

K562 [8] = test: as above; details: Homo sapiens, K562, 72 h; for IC50: read-out: IC50 (absolute IC50); for Emax: read-out: MI %
Summary of the method: as §2

KG-1 [9] = test: as above; details: Homo sapiens, KG-1, 72 h; for IC50: read-out: IC50 (absolute IC50); for Emax: read-out: MI %
Summary of the method: as §2

MCF7 = test: as above; details: Homo sapiens, MCF7, 72 h; for IC50: read-out: IC50 (absolute IC50); for Emax: read-out: MI %
Summary of the method: as §2

MiaPaCa-2 = test: as above; details: Homo sapiens, MIA PaCa-2, 72 h; for IC50: read-out: IC50 (absolute IC50); for Emax: read-out: MI %
Summary of the method: as §2

Jurkat = test: as above; details: Homo sapiens, 72 h, read-out: IC50 (absolute IC50)
Description: (§3) In vitro viability assay were performed to assess the effects of compounds on cell viability in selected cell lines over 72 hr using the CellTiterGlo (CTG, Promega-G7573) assay. The tests were performed in duplicates with treatment of compounds at 9 points, 3.16 folds titration in 96 well plates over ˜72 hr. The compound starting concentrations were […]. Cell viability assay using CellTiterGlo in 96-well plate were performed. Compound treatment 72 hrs, standard growth conditions, duplicates. Compounds were dissolved to 40 mM with thawed […]. Compounds were serially diluted at 3.16 fold in thawed DMSO, and warmed to 37° C. before being dissolved in media ([…]). After compounds were dissolved in media, media containing compounds were warmed to 37° C. in incubator and then compounds in media were added to cell plates ([…]) in duplicates. The compounds' final concentrations were from […] to 19.9 nM. All compound solubilities were checked and recorded again, then the plates were transferred to CO2 tissue culture incubator immediately and incubated for 3 days. DMSO final concentration is 0.5%.

MOLT-4 [10] = test: as above; details: Homo sapiens, MOLT-4, 72 h; for IC50: read-out: IC50 (absolute IC50); for Emax: read-out: MI %
Description: as §3

NCI-H929 = test: as above; details: Homo sapiens, NCI-H929, 72 h; for IC50: read-out: IC50 (absolute IC50); for Emax: read-out: MI %
Description: as §3

RL = test: as above; details: Homo sapiens, 72 h; for IC50: read-out: IC50 (absolute IC50); for Emax: read-out: MI %
Description: as §3

RPMI-8226 = test: as above; details: Homo sapiens, RPMI-8226, 72 h; for IC50: read-out: IC50 (absolute IC50); for Emax: read-out: MI %
Description: as §3

C[C@H](NP(=O)(OC[C@@H]1C[C@@H](O)[C@H](n2cnc3c(N)ncnc32)O1)Oc1cccc2ccccc12)C(=O)OCc1ccccc1 (stereo partly drawn) [B, (2S)-benzyl 2-(((((2S,4R,5R)-5-(6-amino-9H-purin-9-yl)-4-hydroxytetrahydrofuran-2-yl)methoxy)(naphthalen-1-yloxy)phosphoryl)amino)propanoate]
99%: Emax (NCI-H929)
5 to 15 µM: IC50 (HL-60 [1]) | IC50 (HepG2 [2]) | IC50 (KG-1 [4]) | IC50 (HT29) | IC50 (HepG2 [7]) | IC50 (KG-1 [9]) | IC50 (RPMI-8226)
100%: Emax (CCRFCEM)
0.1 to 5 µM: IC50 (K562 [3]) | IC50 (MCF-7) | IC50 (MOLT-4 [5]) | IC50 (CCRFCEM) | IC50 (HEL92.1.7) | IC50 (HL-60 [6]) | IC50 (K562 [8]) | IC50 (MCF7) | IC50 (MiaPaCa-2) | IC50 (Jurkat) | IC50 (MOLT-4 [10]) | IC50 (NCI-H929) | IC50 (RL)

Nc1ncnc2c1ncn2[C@@H]1O[C@H](COP(=O)(NCC(=O)OCc2ccccc2)Oc2ccccc2)C[C@H]1O (stereo partly drawn) [C, Benzyl 2-(((((2S,4R,5R)-5-(6-amino-9H-purin-9-yl)-4-hydroxytetrahydrofuran-2-yl)methoxy)(phenoxy)phosphoryl)amino)acetate]
104%: Emax (NCI-H929)
92%: Emax (MOLT-4 [10])
99%: Emax (HEL92.1.7) | Emax (HT29) | Emax (HepG2 [7])
0.1 to 5 µM: IC50 (MOLT-4 [5]) | IC50 (HEL92.1.7) | IC50 (MCF7) | IC50 (MOLT-4 [10])
15 to 100 µM: IC50 (HL-60 [1]) | IC50 (HepG2 [2]) | IC50 (HT29) | IC50 (HepG2 [7]) | IC50 (KG-1 [9]) | IC50 (RPMI-8226)
5 to 15 µM: IC50 (K562 [3]) | IC50 (MCF-7) | IC50 (CCRFCEM) | IC50 (HL-60 [6]) | IC50 (K562 [8]) | IC50 (MiaPaCa-2) | IC50 (Jurkat) | IC50 (NCI-H929) | IC50 (RL)
106%: Emax (MiaPaCa-2)
103%: Emax (RPMI-8226)
100%: Emax (CCRFCEM) | Emax (HL-60 [6]) | Emax (K562 [8]) | Emax (RL)
102%: Emax (KG-1 [9]) | Emax (MCF7)
> 100 µM: IC50 (KG-1 [4])

C[C@H](NP(=O)(OC[C@@H]1CC(O)[C@H](n2cnc3c(N)ncnc32)O1)Oc1ccccc1)C(=O)OCc1ccccc1 (stereo partly drawn) [Compound A, 3′-deoxyadenosine-5′-O-[phenyl(benzyloxy-L-alaninyl)] phosphate]
99%: Emax (HL-60 [6]) | Emax (MCF7)
93%: Emax (HT29) | Emax (RL)
96%: Emax (K562 [8]) | Emax (MiaPaCa-2) | Emax (RPMI-8226)
98%: Emax (MOLT-4 [10])
100%: Emax (CCRFCEM) | Emax (HEL92.1.7) | Emax (KG-1 [9]) | Emax (NCI-H929)
75%: Emax (HepG2 [7])
15 to 100 µM: IC50 (HepG2 [7]) | IC50 (KG-1 [9])
0.1 to 5 µM: IC50 (K562 [3]) | IC50 (MCF-7) | IC50 (MOLT-4 [5]) | IC50 (CCRFCEM) | IC50 (K562 [8]) | IC50 (MCF7) | IC50 (Jurkat) | IC50 (MOLT-4 [10]) | IC50 (RL)
5 to 15 µM: IC50 (HL-60 [1]) | IC50 (HepG2 [2]) | IC50 (KG-1 [4]) | IC50 (HEL92.1.7) | IC50 (HL-60 [6]) | IC50 (HT29) | IC50 (MiaPaCa-2) | IC50 (NCI-H929) | IC50 (RPMI-8226)
